Data taken from ChEMBL document CHEMBL1201862, “PubChem BioAssay data set” (2004).
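In this assay, cells in 96-well plates receive the compound at five concentrations for 48 hours. Endpoints are linearly interpolated between the surrounding concentrations. Here, GI50 denotes the concentration required for 50% inhibition of growth.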 Active and inactive are the calls of the source. No stated cut-off is given here; in the data, active = GI50 up to about 1.1 µM and inactive = higher.

Experiments:
Assay in all cases: DTP human tumour cell line panel, 48 h
HOP-92 = system: HOP-92
A549 = system: A549
OVCAR-8 = system: OVCAR-8
RXF 631 = system: RXF 631
SK-MEL-2 = system: SK-MEL-2
SF-539 = system: SF-539
HT-29 = system: HT-29
OVCAR-4 = system: OVCAR-4
SNB-75 = system: SNB-75
SK-OV-3 = system: SK-OV-3
CCRF-CEM = system: CCRF-CEM
K562 = system: K562
DLD-1 = system: DLD-1
M14 = system: M14
RXF 393 = system: RXF 393
786-0 = system: 786-0
SK-MEL-5 = system: SK-MEL-5
NCI-H226 = system: NCI-H226
A498 = system: A498
U-251 = system: U-251
M19-MEL = system: M19-MEL
MOLT-4 = system: MOLT-4
NCI-H522 = system: NCI-H522
NCI-H23 = system: NCI-H23
HOP-18 = system: HOP-18
SF-295 = system: SF-295
HCT-116 = system: HCT-116
SNB-19 = system: SNB-19
RPMI-8226 = system: RPMI-8226
UACC-62 = system: UACC-62
SF-268 = system: SF-268
IGROV-1 = system: IGROV-1
HCC 2998 = system: HCC 2998
SW-620 = system: SW-620
SN12C = system: SN12C
UO-31 = system: UO-31
LXFL 529 = system: LXFL 529
UACC-257 = system: UACC-257
NCI-H460 = system: NCI-H460
SR = system: SR
SNB-78 = system: SNB-78
Malme-3M = system: Malme-3M
ACHN = system: ACHN
XF498 = system: XF498
KM12 = system: KM12
DMS-114 = system: DMS-114
LOX IMVI = system: LOX IMVI
HOP-62 = system: HOP-62
EKVX = system: EKVX
CAKI-1 = system: CAKI-1
COLO 205 = system: COLO 205
TK-10 = system: TK-10
KM-20L2 = system: KM-20L2
OVCAR-5 = system: OVCAR-5
OVCAR-3 = system: OVCAR-3
SK-MEL-28 = system: SK-MEL-28
HL-60 = system: HL-60
DMS-273 = system: DMS-273
HCT-15 = system: HCT-15

With `NC1=NCC(c2ccccn2)C1c1ccc(F)cc1` (centres undefined) the GI50 (HOP-92) was > 100 µM (inactive), the GI50 (A549) was > 100 µM (inactive) and the GI50 (OVCAR-8) was > 100 µM (inactive). The GI50 (RXF 631) was > 100 µM (inactive), the GI50 (SK-MEL-2) was > 100 µM (inactive) and the GI50 (SF-539) was > 100 µM (inactive). For the same molecule, the GI50 (HT-29) was > 100 µM (inactive), the GI50 (OVCAR-4) was > 100 µM (inactive) and the GI50 (SNB-75) was > 100 µM (inactive). The GI50 (SK-OV-3) was > 100 µM (inactive), the GI50 (CCRF-CEM) was > 100 µM (inactive) and the GI50 (K562) was > 100 µM (inactive). For the same molecule, the GI50 (DLD-1) was > 100 µM (inactive), the GI50 (M14) was > 100 µM (inactive) and the GI50 (RXF 393) was > 100 µM (inactive). For the same molecule, the GI50 (786-0) was > 100 µM (inactive), the GI50 (SK-MEL-5) was > 100 µM (inactive) and the GI50 (NCI-H226) was > 100 µM (inactive). For the same molecule, the GI50 (A498) was > 100 µM (inactive), the GI50 (U-251) was > 100 µM (inactive) and the GI50 (M19-MEL) was > 100 µM (inactive). For the same molecule, the GI50 (MOLT-4) was > 100 µM (inactive), the GI50 (NCI-H522) was > 100 µM (inactive) and the GI50 (NCI-H23) was > 100 µM (inactive). The GI50 (HOP-18) was > 100 µM (inactive), the GI50 (SF-295) was > 100 µM (inactive) and the GI50 (HCT-116) was > 100 µM (inactive). For the same molecule, the GI50 (SNB-19) was > 100 µM (inactive), the GI50 (RPMI-8226) was > 100 µM (inactive) and the GI50 (UACC-62) was > 100 µM (inactive). The GI50 (SF-268) was > 100 µM (inactive), the GI50 (IGROV-1) was > 100 µM (inactive) and the GI50 (HCC 2998) was > 100 µM (inactive). For the same molecule, the GI50 (SW-620) was > 100 µM (inactive), the GI50 (SN12C) was > 100 µM (inactive) and the GI50 (UO-31) was > 100 µM (inactive). For the same molecule, the GI50 (LXFL 529) was > 100 µM (inactive), the GI50 (UACC-257) was > 100 µM (inactive) and the GI50 (NCI-H460) was > 100 µM (inactive). The GI50 (SR) was > 100 µM (inactive), the GI50 (SNB-78) was > 100 µM (inactive) and the GI50 (Malme-3M) was > 100 µM (inactive). The GI50 (ACHN) was > 100 µM (inactive), the GI50 (XF498) was > 100 µM (inactive) and the GI50 (KM12) was > 100 µM (inactive). For the same molecule, the GI50 (DMS-114) was > 100 µM (inactive), the GI50 (LOX IMVI) was > 100 µM (inactive) and the GI50 (HOP-62) was > 100 µM (inactive). The GI50 (EKVX) was > 100 µM (inactive), the GI50 (CAKI-1) was > 100 µM (inactive) and the GI50 (COLO 205) was > 100 µM (inactive). For the same molecule, the GI50 (TK-10) was > 100 µM (inactive), the GI50 (KM-20L2) was > 100 µM (inactive) and the GI50 (OVCAR-5) was > 100 µM (inactive). For the same molecule, the GI50 (OVCAR-3) was > 100 µM (inactive) and the GI50 (SK-MEL-28) was > 100 µM (inactive).

`CCOP(=O)(Cc1ccc(CP(=O)(OCC)OCC)n1C)OCC` was tested, and the GI50 (HOP-92) was > 100 µM (inactive), the GI50 (HL-60) was > 100 µM (inactive) and the GI50 (A549) was > 100 µM (inactive). For the same molecule, the GI50 (OVCAR-8) was > 100 µM (inactive), the GI50 (RXF 631) was > 100 µM (inactive) and the GI50 (SK-MEL-2) was > 100 µM (inactive). For the same molecule, the GI50 (SF-539) was > 100 µM (inactive), the GI50 (HT-29) was > 100 µM (inactive) and the GI50 (OVCAR-4) was > 100 µM (inactive). The GI50 (SNB-75) was > 100 µM (inactive), the GI50 (SK-OV-3) was > 100 µM (inactive) and the GI50 (CCRF-CEM) was > 100 µM (inactive). The GI50 (K562) was > 100 µM (inactive), the GI50 (DLD-1) was > 100 µM (inactive) and the GI50 (M14) was > 100 µM (inactive). The GI50 (RXF 393) was > 100 µM (inactive), the GI50 (786-0) was > 100 µM (inactive) and the GI50 (SK-MEL-5) was > 100 µM (inactive). The GI50 (U-251) was > 100 µM (inactive), the GI50 (DMS-273) was > 100 µM (inactive) and the GI50 (M19-MEL) was > 100 µM (inactive). The GI50 (MOLT-4) was > 100 µM (inactive), the GI50 (NCI-H522) was > 100 µM (inactive) and the GI50 (NCI-H23) was > 100 µM (inactive). The GI50 (HOP-18) was 75 µM (inactive), the GI50 (SF-295) was > 100 µM (inactive) and the GI50 (SNB-19) was > 100 µM (inactive). The GI50 (RPMI-8226) was > 100 µM (inactive), the GI50 (UACC-62) was > 100 µM (inactive) and the GI50 (SF-268) was > 100 µM (inactive). For the same molecule, the GI50 (IGROV-1) was > 100 µM (inactive), the GI50 (HCC 2998) was > 100 µM (inactive) and the GI50 (SW-620) was > 100 µM (inactive). For the same molecule, the GI50 (SN12C) was > 100 µM (inactive), the GI50 (UO-31) was > 100 µM (inactive) and the GI50 (LXFL 529) was > 100 µM (inactive). For the same molecule, the GI50 (UACC-257) was > 100 µM (inactive), the GI50 (HCT-15) was over 100 µM and the GI50 (NCI-H460) was > 100 µM (inactive). For the same molecule, the GI50 (Malme-3M) was > 100 µM (inactive), the GI50 (ACHN) was > 100 µM (inactive) and the GI50 (KM12) was > 100 µM (inactive). For the same molecule, the GI50 (DMS-114) was > 100 µM (inactive), the GI50 (LOX IMVI) was > 100 µM (inactive) and the GI50 (HOP-62) was > 100 µM (inactive). For the same molecule, the GI50 (EKVX) was > 100 µM (inactive), the GI50 (CAKI-1) was > 100 µM (inactive) and the GI50 (COLO 205) was > 100 µM (inactive). The GI50 (TK-10) was > 100 µM (inactive), the GI50 (KM-20L2) was > 100 µM (inactive) and the GI50 (OVCAR-5) was > 100 µM (inactive). The GI50 (OVCAR-3) was > 100 µM (inactive) and the GI50 (SK-MEL-28) was > 100 µM (inactive).
